Test system: SK-MEL-2 multi-cell spheroids, viability
Test: Anticancer human tumor SK-MEL-2 cell line growth inhibition [TAK];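 further: spheroids exposed to drugs for seven days before readout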;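 on viability, T/C: percent of DMSO vehicle control luminescence so 100% = untreated viability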
Settings: for IC50: curve of first compound; for viability, T/C: stronger effect = lower value
Method in brief: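 Tumor cells were grown as spheroids with HUVEC and hMSC (60:25:15) and treated with targeted agents combined with TAK-243 or ipatasertib. Drugs were tested in half-log steps down from near the clinical Cmax, or from 10 microM where Cmax was unknown.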

[1] = second compound 0.3 µM, first compound 0.0316 µM
[2] = second compound 0.3 µM, first compound 0.1 µM
[3] = second compound 0.3 µM, first compound 0.316 µM
[4] = second compound 0.3 µM, first compound 1 µM
[5] = second compound 0.949 µM, first compound 0.0316 µM
[6] = second compound 0.949 µM, first compound 0.1 µM
[7] = second compound 0.949 µM, first compound 0.316 µM
[8] = second compound 0.949 µM, first compound 1 µM
[9] = second compound 3 µM, first compound 0.0316 µM
[10] = second compound 3 µM, first compound 0.1 µM
[11] = second compound 3 µM, first compound 0.316 µM
[12] = second compound 3 µM, first compound 1 µM
[13] = second compound 9.49 µM, first compound 0.0316 µM
[14] = second compound 9.49 µM, first compound 0.1 µM
[15] = second compound 9.49 µM, first compound 0.316 µM
[16] = second compound 9.49 µM, first compound 1 µM
[17] = second compound 30 µM, first compound 0.0316 µM
[18] = second compound 30 µM, first compound 0.1 µM
[19] = second compound 30 µM, first compound 0.316 µM
[20] = second compound 30 µM, first compound 1 µM

SMILES	IC50 (second compound 0.3 µM) [nM]	IC50 (second compound 0.949 µM) [nM]	IC50 (second compound 3 µM) [nM]	IC50 (second compound 9.49 µM) [nM]	IC50 (second compound 30 µM) [nM]	viability, T/C [1] [%]	viability, T/C [2] [%]	viability, T/C [3] [%]	viability, T/C [4] [%]	viability, T/C [5] [%]	viability, T/C [6] [%]	viability, T/C [7] [%]	viability, T/C [8] [%]	viability, T/C [9] [%]	viability, T/C [10] [%]	viability, T/C [11] [%]	viability, T/C [12] [%]	viability, T/C [13] [%]	viability, T/C [14] [%]	viability, T/C [15] [%]	also measured
COc1c(OCCCN2CCOCC2)ccc2c3n(c(=NC(=O)c4cnc(N)nc4)nc12)CCN3 + CC(C)NCC(C(=O)N1CCN(c2ncnc3c2C(C)CC3O)CC1)c1ccc(Cl)cc1	51.3	29.4	20.8	14.5	9.89	50.6	45.6	30.9	19.5	47.1	38.4	27.6	21	40.2	34.2	26.1	19.5	37	31.4	24.6	viability, T/C (second compound 0.3 µM, first compound 0.00316 µM): 92%; viability, T/C (second compound 0.3 µM, first compound 0.01 µM): 72.5%; viability, T/C (second compound 0.949 µM, first compound 0.00316 µM): 81%; viability, T/C (second compound 0.949 µM, first compound 0.01 µM): 65%; viability, T/C (second compound 3 µM, first compound 0.00316 µM): 68.5%; viability, T/C (second compound 3 µM, first compound 0.01 µM): 62.9%; viability, T/C (second compound 9.49 µM, first compound 0.00316 µM): 59.8%; viability, T/C (second compound 9.49 µM, first compound 0.01 µM): 57.6%; viability, T/C [16]: 21.1%; viability, T/C (second compound 30 µM, first compound 0.00316 µM): 52.5%; viability, T/C (second compound 30 µM, first compound 0.01 µM): 50.8%; viability, T/C [17]: 41.6%; viability, T/C [18]: 28.8%; viability, T/C [19]: 21.1%; viability, T/C [20]: 16.3%
Cc1nc(NC(=O)N2CCCC2C(N)=O)sc1-c1ccnc(C(C)(C)C(F)(F)F)c1 (stereo not given) + CC(C)NCC(C(=O)N1CCN(c2ncnc3c2C(C)CC3O)CC1)c1ccc(Cl)cc1	> 10000	> 10000	> 10000	> 10000	218	97	84.7	70.5	79.8	85	74.7	64.8	65.8	66.1	67.3	52.8	58.8	56	56.4	48.7	viability, T/C (second compound 0.3 µM, first compound 3.16 µM): 75.3%; viability, T/C (second compound 0.3 µM, first compound 10 µM): 55.6%; viability, T/C (second compound 0.949 µM, first compound 3.16 µM): 59.5%; viability, T/C (second compound 0.949 µM, first compound 10 µM): 49.4%; viability, T/C (second compound 3 µM, first compound 3.16 µM): 57.3%; viability, T/C (second compound 3 µM, first compound 10 µM): 51.2%; viability, T/C [16]: 51.1%; viability, T/C (second compound 9.49 µM, first compound 3.16 µM): 55.9%; viability, T/C (second compound 9.49 µM, first compound 10 µM): 49.2%; viability, T/C [17]: 52.4%; viability, T/C [18]: 55.8%; viability, T/C [19]: 46.2%; viability, T/C [20]: 43.7%; viability, T/C (second compound 30 µM, first compound 3.16 µM): 50.3%; viability, T/C (second compound 30 µM, first compound 10 µM): 40%
